What all share (format): biochemical
In one assay the target is T1, Lysosomal α-Mannosidase (Homo sapiens, UniProt O00754).
T1 construct: Human liver glycosidases were assayed; from tissue; host or cells: human liver
T1 sequence (O00754 50-1011): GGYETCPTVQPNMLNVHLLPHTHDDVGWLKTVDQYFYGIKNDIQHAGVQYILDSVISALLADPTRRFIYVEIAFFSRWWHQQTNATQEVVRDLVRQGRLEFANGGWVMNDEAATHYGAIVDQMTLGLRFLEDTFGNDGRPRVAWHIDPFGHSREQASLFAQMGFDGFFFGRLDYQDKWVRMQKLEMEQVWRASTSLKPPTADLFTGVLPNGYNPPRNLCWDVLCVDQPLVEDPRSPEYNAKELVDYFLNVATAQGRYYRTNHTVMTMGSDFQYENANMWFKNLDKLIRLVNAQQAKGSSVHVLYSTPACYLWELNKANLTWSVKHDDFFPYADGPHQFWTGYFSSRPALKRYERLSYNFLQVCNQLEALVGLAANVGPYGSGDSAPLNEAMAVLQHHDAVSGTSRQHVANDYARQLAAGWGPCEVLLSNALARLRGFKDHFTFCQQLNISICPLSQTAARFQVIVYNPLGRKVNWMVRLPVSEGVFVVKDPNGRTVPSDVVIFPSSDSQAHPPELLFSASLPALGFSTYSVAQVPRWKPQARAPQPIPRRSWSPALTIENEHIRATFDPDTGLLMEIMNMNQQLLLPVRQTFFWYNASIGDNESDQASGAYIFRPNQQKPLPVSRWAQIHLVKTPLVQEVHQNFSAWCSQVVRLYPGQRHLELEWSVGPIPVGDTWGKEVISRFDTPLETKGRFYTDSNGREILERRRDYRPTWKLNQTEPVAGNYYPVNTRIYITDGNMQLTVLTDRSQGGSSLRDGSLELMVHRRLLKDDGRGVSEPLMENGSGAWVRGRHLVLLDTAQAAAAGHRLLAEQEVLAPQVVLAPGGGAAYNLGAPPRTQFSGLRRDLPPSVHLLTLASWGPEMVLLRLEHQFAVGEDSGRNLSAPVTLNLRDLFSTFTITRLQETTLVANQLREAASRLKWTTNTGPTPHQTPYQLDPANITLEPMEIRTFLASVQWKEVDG
Nature of the assay: inhibition of human liver lysosomal α-mannosidase. The conditions noted are these: for inhibition at 1000 µM: 1 mM inhibitor, read-out: % Inhibition of Glycosidase Activity, α-Mannosidase Lysosomal. As to the method: (§1) Human liver glycosidases were assayed in the absence and presence [1 mM] of each of the potential inhibitors, using the appropriate buffered 4-methylumbelliferyl glycosides as substrates, as previously described.^17 See Table I, below.

The next assay addresses T2, Neutral α-Mannosidase (Homo sapiens, UniProt Q9NTJ4).
T2 construct: Human liver glycosidases were assayed; from tissue; host or cells: human liver
T2 sequence (Q9NTJ4 1-1040): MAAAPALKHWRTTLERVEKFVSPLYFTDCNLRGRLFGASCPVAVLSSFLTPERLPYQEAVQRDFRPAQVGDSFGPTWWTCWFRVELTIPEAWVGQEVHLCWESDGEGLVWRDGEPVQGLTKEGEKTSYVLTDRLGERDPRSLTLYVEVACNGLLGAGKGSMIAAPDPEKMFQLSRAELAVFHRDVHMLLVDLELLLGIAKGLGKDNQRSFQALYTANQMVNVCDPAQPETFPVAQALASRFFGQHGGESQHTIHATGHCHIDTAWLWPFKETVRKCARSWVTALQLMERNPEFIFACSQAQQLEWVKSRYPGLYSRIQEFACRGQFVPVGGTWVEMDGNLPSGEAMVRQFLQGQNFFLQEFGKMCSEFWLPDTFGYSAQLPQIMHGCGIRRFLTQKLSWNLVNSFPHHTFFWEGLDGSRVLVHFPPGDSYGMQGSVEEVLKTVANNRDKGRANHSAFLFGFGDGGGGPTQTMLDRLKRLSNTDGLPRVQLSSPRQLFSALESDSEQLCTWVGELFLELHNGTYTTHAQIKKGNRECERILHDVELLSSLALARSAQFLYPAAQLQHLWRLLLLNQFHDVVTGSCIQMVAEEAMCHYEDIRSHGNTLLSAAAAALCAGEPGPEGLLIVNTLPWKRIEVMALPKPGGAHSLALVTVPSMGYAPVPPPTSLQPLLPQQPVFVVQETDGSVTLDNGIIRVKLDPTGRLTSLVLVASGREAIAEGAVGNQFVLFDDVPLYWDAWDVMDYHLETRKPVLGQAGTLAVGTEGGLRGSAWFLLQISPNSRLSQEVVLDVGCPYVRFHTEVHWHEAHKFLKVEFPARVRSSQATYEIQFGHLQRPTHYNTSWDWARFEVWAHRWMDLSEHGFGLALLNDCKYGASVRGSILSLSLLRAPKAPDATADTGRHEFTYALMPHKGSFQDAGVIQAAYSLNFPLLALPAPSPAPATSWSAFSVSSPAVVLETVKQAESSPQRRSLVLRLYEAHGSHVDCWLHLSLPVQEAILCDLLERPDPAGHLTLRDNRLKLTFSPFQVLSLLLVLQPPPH
Nature of the assay: inhibition of human liver neutral α-mannosidase. To be noted: for inhibition at 1000 µM: 1 mM inhibitor, read-out: % Inhibition of Glycosidase Activity, α-Mannosidase Neutral. As to the method:
as §1

The target of the next assay is T3, α-Fucosidase (Homo sapiens, UniProt P04066).
T3 construct: Human liver glycosidases were assayed; from tissue; host or cells: human liver
T3 sequence (P04066 32-466): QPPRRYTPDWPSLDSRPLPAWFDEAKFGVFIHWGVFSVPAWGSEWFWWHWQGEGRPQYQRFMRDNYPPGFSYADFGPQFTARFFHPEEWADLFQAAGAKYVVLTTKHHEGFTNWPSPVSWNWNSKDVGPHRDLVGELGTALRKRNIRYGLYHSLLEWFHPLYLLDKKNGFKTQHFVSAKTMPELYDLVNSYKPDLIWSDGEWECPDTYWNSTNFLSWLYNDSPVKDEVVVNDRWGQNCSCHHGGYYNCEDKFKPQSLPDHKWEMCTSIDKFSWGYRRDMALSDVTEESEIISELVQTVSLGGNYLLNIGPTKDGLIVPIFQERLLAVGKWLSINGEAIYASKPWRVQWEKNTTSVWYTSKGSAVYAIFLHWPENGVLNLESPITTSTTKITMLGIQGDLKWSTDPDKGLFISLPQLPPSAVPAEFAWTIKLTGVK
In words: inhibition of human liver α-fucosidase. The conditions noted are these: for inhibition of α-fucosidase (in words): 1 mM; for inhibition at 1000 µM: 1 mM inhibitor, read-out: % Inhibition of Glycosidase Activity, α-Fucosidase. How it is done:
as §1

The source of these data is patent US5384417A, “Heptitols” (priority 1994, dated 1995).

One may read the inhibition as the drop in the measured response relative to a control, in per cent.

Structures are written as SMILES.

On to `NC[C@H]1O[C@H]([C@H](O)CO)[C@H](O)[C@@H]1O` [Manhepamine (5), 1-amino-2,5-anhydro-1-deoxy-D-glycero-D-talo-heptitol], for which the inhibition at 1000 µM was 2% at Lysosomal α-Mannosidase, 2% at Neutral α-Mannosidase and 77% at α-Fucosidase. The “inhibition of α-fucosidase (in words)” value against α-Fucosidase was “moderate inhibition of α-fucosidase”; on α-Fucosidase (listed as α-(aminomethyl)-1-deoxy-mannofuranose (5)) it was “moderate inhibitor of α-fucosidase”.
For the compound `OC[C@@H](O)[C@H]1N[C@H](CO)[C@@H](O)[C@H]1O` [αHomoDIM (4), 2,5-dideoxy-2,5-imino-D-glycero-D-talo-heptitol], the inhibition at 1000 µM on Lysosomal α-Mannosidase is 71%; at Neutral α-Mannosidase it was 76%; at α-Fucosidase, 27%. Moreover, the “inhibition of lysosomal α-mannosidase (in words)” value on Lysosomal α-Mannosidase (compared with DIM (3)) was “decreases the inhibition of the lysosomal and neutral enzymes”. Further, the “inhibition of neutral α-mannosidase (in words)” value against Neutral α-Mannosidase (compared with DIM (3)) is “decreases the inhibition of the lysosomal and neutral enzymes”. For the same compound, the “inhibition of α-fucosidase (in words)” value on α-Fucosidase is “much less potent”.
In the case of `OC[C@H]1N[C@H](CO)[C@@H](O)C(O)[C@@H]1O` (some centres unmarked) [αHomoDMJ (2)], the inhibition at 1000 µM at Lysosomal α-Mannosidase worked out at 49%; at Neutral α-Mannosidase, 33%; at α-Fucosidase it was 29%. Further, the “inhibition of α-fucosidase (in words)” value at α-Fucosidase is listed as “decrease markedly the potent inhibition of α-fucosidase”.
Consider `OC[C@@H](O)[C@H]1NC[C@@H](O)[C@H]1O` [DIM (3)], for which the results for the inhibition at 1000 µM on Lysosomal α-Mannosidase and on Neutral α-Mannosidase were 97% and 89%, respectively.
With `OC[C@H]1NC[C@@H](O)[C@@H](O)[C@@H]1O` [DMJ (1), deoxymannojirimycin], the inhibition at 1000 µM was 58% at Lysosomal α-Mannosidase and 30% on Neutral α-Mannosidase. Besides, on α-Fucosidase, the “inhibition of α-fucosidase (in words)” value is given as “potent inhibition of α-fucosidase”.
